This note sets out measurements from patent US5340925A, “Normal human growth regulatory receptor for TGF-β” (Oncogen, priority 1992, dated 1994).

Test [1] has as its system HEPM cells. Description: Growth stimulation assay: incorporation of 5-[125I]iodo-2'-deoxyuridine into DNA of quiescent HEPM cells. The class given is cell-based, human. The conditions noted are these: 66 h + 6 h radionuclide label. Here is the method: FIGS. 1(A) and 1(B) Bioactivity of TGF-β on HEPM cells: incorporation of radionuclide into DNA. Results are presented as percent stimulation vs the picomolar (pM) concentration of TGF-β. Percent stimulation was calculated as follows: treated (cpm)-untreated (cpm)/untreated (cpm) x 100. Panel A: TGF-β1, treatment. Panel B: TGF-β2 treatment.
HEPM cells (5,000 cells/50 μl ) were subcultured in 96-well tissue culture plates (Falcon 30072) in growth medium comprising minimal essential medium (Gibco, Grand Island, N.Y.) supplemented with 10% heat-inactivated fetal bovine serum, 600 μg/ml L-glutamine, 500 μg/ml penicillin and 500 μg/ml streptomycin for a 24-hour period at 37° C. in a humidified 5% CO2 /95% air atosphere. A nondividing, quiescent state of growth was achieved by subsequent incubation for 48 hours in growth medium supplemented with 0.5% fetal bovine serum. Quiescent cells were then stimulated to proliferate by the addition of fetal bovine serum (10 μl ) and test samples of TGF-β1, or TGF-β2 (50 μl). The cells were incubated an additional 66 hours at 37° C. […] The amount of cell growth was measured by the amount of radionuclide incorporated into the DNA of actively growing cells.

The test system of test [2] is HEPM cells. Description: Co-stimulation with EGF assay (radionuclide incorporation into DNA). The class given is cell-based, human. Here is the method: Quiescent HEPM cells were stimulated to proliferate by the addition of fetal bovine serum (15 μ) and test samples of TGF-β2 (50 μl) and/or EGF (50 μl), resulting in a total assay volume of 165 μl. The amount of cell growth was measured by the amount of radionuclide incorporated into the DNA of actively growing cells.
The response of HEPM cells to TGF-β treatment in the presence of EGF was determined by radiolabeling the DNA of dividing cells as described in Materials and Methods. A suboptimal dose of TGF-β2 was analyzed for growth stimulatory activity in the presence of EGF. […] HEPM cells treated with both EGF and TGF-β2 at the same doses gave a 511% stimulation, a potentiated response of 340% over that expected from the sum of the two individual responses.

For test [3], the target named is T1, HEPM cell-surface receptors for TGF-β (Homo sapiens, UniProt Q03167).
T1 construct: endogenous in cells; host or cells: HEPM (human embryonic palatal mesenchyme) cells, intact monolayers
T1 sequence (Q03167 21-851): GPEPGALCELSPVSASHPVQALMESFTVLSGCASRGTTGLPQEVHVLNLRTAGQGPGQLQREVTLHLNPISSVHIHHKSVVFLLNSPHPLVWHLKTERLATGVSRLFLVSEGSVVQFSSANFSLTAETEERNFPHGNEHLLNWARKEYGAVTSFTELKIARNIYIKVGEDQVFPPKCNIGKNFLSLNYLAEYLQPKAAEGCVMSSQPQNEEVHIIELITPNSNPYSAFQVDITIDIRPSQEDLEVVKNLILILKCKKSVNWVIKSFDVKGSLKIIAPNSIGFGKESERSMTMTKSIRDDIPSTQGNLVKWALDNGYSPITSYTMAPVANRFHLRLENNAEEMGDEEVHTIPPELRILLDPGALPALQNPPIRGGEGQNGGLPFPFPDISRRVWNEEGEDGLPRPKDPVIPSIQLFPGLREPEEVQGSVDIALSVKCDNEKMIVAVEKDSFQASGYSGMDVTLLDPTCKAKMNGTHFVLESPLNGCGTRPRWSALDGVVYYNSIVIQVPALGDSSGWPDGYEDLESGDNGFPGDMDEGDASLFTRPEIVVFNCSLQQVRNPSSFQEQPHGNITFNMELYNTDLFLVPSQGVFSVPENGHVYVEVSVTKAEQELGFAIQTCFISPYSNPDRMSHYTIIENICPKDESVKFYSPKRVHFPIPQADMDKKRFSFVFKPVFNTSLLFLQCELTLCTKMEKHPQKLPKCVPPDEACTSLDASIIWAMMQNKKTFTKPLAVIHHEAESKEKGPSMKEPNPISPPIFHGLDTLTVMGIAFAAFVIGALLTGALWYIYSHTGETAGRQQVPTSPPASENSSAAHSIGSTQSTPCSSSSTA
Description: Radioreceptor assay: [125I]-iodo-TGF-β1 in competition with unlabeled TGF-β1, Scatchard analysis. Format: binding. The conditions noted are these: untreated HEPM cells, Scatchard two-site model. Here is the method:
(§1) HEPM cells were grown to confluence (1×10^5 cells/well) in 24-well Costar tissue culture plates. Prior to the binding assay, cells were pre-incubated in serum-free growth medium at 37° C. for 4 hours to allow for the dissociation of TGF-β from occupied cells surface receptors. The resulting monolayers were washed 2 times in binding buffer (Dulbecco's MEM+0.1% BSA+25 mM HEPES). 250 μl of binding buffer containing 0.5 μg/ml [^125 I]-iodoTGF-β1, (specific activity of 100 μCi/μg) together with increasing amounts of unlabeled TGF-β1 were added to duplicate wells. Steady state binding was carried out at 4° C. for 3 hours. After incubation cells were washed 3 times with cold binding buffer and solubilized in 200 μl of Triton solution (20 mM HEPES, 1% Triton X-100, 10% glycerol, 0.01% BSA, pH 7.4). Radioactivity was determined using a gamma spectrometer. Non-specific binding was determined in the presence of a 1,000-fold molar excess unlabeled TGF-β1.
(§2) The radioreceptor assay described in Materials and Methods was used to characterize the affinity and number of cell-surface receptors for TGF-β on HEPM cells. Specific binding of [^125 I]-iodo-TGF-βin these assays was 20% of the total radioligand present. […] Half-maximal displacement of radioligand occurred at 100 pM (2.6 ng/ml) unlabeled TGF-β1. Competitive binding data were plotted according to the method of Scatchard (Scatchard, et al., 1947, Ann. NY Acad Sci 51:660-672) and the results are presented in FIG. 5. A distinctly curvilinear isotherm was obtained indicating the presence of at least two classes of binding sites on HEPM cells. […] Quantitative analysis determined that HEPM cells contain a total of 287,000 TGF-β receptors per cell (55,400 high affinity and 231,600 low affinity sites).

The test system of test [4] is HEPM cell-surface receptors for TGF-β. The test is described as above. The conditions noted are these: comparison of growth stimulation and receptor binding, FIG. 6. Format: binding, human. Here is the method: as §1, §2
For test [5], the target named is T2, TGF-β (Homo sapiens, UniProt P01137).
T2 construct: endogenous in cells; host or cells: HEPM cells
T2 sequence (P01137 279-390): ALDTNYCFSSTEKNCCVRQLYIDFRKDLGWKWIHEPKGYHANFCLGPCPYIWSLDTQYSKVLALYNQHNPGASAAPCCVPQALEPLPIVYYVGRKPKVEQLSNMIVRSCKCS
Description: Affinity labeling of purified soluble receptor with [125I]-iodo-TGF-β, DSS cross-linking, SDS-PAGE. The class given is binding. The conditions noted are these: [125I]-iodo-TGF-β with or without 1,000 ng/ml unlabeled TGF-β. Here is the method: FIG. 10 Ability of purified TGF-β receptor to bind TGF-β. Affinity purified receptor preparations were crosslinked to bound [^125 I]-iodo-TGF-β with DSS and analyzed on SDS-PAGE. Lanes marked (-) contained only [^125 I]-iodo-TGF-β; lanes marked (+) contained [^125 I]-iodo-TGF-β in the presence of 1,000 ng/ml unlabeled TGF-β. The 240 Kd band is specifically labeled with radioligand and has the same mobility on SDS-PAGE as the receptor-TGF-β complex from cell surface membranes (see FIG. 7).
Solubilized receptor samples (50 μl) were diluted with three volumes of binding buffer containing 0.5% v/v Triton X-100 and 50 ng/ml [^125 I]-iodo-TGF-β. The samples were incubated at 4° C. for 3 hours in the presence or absence of 1,000 ng/ml unlabeled TGF-β. Four microliters (4 μl) of 10 mM DSS in DMSO were then added. After 15 minutes the unreacted DSS was quenched by adding 20 μl of 100 mM Tris/HCl pH 7.0.
Affinity-labeled samples were incubated at 4° C. for 2 hours with 15 μl of packed WGA-sepharose beads (wheat germ aglutinin-sepharose, Sigma) with end-over-end mixing. The beads were sedimented by centrifugation at 12,000 xg for 1 minute and washed three times with a buffer solution containing 0.5% v/v Triton X-100, 10 mM Tris/HCl, mM EDTA. The washed, packed beads were heated for 5 minutes at 95° C. in the presence of 20 μl of electrophoresis sample buffer containing 5% 2-mercaptoethanol. […]

Where two headings read alike, the source gives them in different places.

On to “TGF-β2: polypeptide of molecular weight 26,000 composed of two identical 13,000 dalton subunits which are disulfide linked”, for which the “ED50 in stimulating the proliferation of HEPM cells (half-maximal growth stimulation)” value in test [1] stood at 0.0023 nM. Moreover, the percent stimulation in test [2] (0.3 ng/ml TGF-β2 alone (suboptimal dose)) was 150%. Consider “EGF: epidermal growth factor [reference compound]”, for which the percent stimulation in test [2] (13 ng/ml EGF alone) is on record as 21%. By Kd is commonly meant a measure of binding affinity in units of concentration. For “TGF-β: Transforming growth factor-Beta, type not named at the place; the underlying radioreceptor and FIG. 6 data were obtained with TGF-β1”, the Kd in test [3] (read-out: kd, high-affinity (low capacity) site) was 0.058 nM; in test [3] (read-out: kd, low-affinity (high capacity) site) it was 0.898 nM. For the same molecule, the “concentration to occupy all TGF-β receptor sites relative to concentration for maximal growth stimulatory response” value in test [4] is “about 20 times”.

B1: affinity purified receptor: type III TGF-β receptor affinity purified from HEPM cells, about 200-206 kd, N-terminus Lys-Tyr-Tyr-Asp-Lys-Asp-Tyr (protein, UniProt Q03167 21-851, looked up)
Transforming growth factor …: T1 sequence (Q03167 21-851)
Take B1: the “ability of purified receptor to bind TGF-β” value in test [5] was “specifically bind TGF-β”.
